Test results from patent US10259847B2, “Beta-hairpin peptidomimetics” (POLYPHOR AG, priority 2014, dated 2019).
Like-named read-outs stand apart in the source and are kept apart here. *1 amine or outer side, *2 acyl side, *3 side chain or, on linkers, in order; H or OH if unused. Where a SMILES comes first, the peptide text is derived from it. Bridges are numbered along the chain shown (N, C = ends). [ ]: non-standard residue; d: D form. Tle = CC(C)(C)[C@H](N)C(=O)O; dDab = NCC[C@@H](N)C(=O)O; hCys = N[C@@H](CCS)C(=O)O; Orn = NCCC[C@H](N)C(=O)O; Dab = NCC[C@H](N)C(=O)O; dAze = O=C(O)[C@H]1CCN1; Dap = NC[C@H](N)C(=O)O; CO = O=C([*:1])[*:2]

Columns and labels:
Type in all cases: cell-based
[1] = system: Acinetobacter baumannii DSM 30008
Outline: (§1)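 Peptide MICs were determined by NCCLS broth microdilution in cation-adjusted Mueller-Hinton II broth. Inoculum was about 10^6 CFU/mL, matched to 0.5 McFarland, with peptides in two-fold serial dilutions. The broth contained Polysorbate 80 at 0.002% final concentration.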

[2] = system: Escherichia coli ATCC 25922
Outline: as §1

[3] = system: Klebsiella pneumoniae ATCC 13883
Outline: as §1

[4] = system: human red blood cells (hRBC); experiment: Hemolysis of human red blood cells
Experimental: Stock solutions were kept at +4° C., light protected.
Percent hemolysis was calculated as follows: (OD540peptide/OD540H2O)×100%.

[5] = Mueller-Hinton broth II, 0.002% P-80, 18-20 hours at 35° C.

Acinetobacter baumannii DSM 30008 MIC ([1]; DSM 30008) | Escherichia coli ATCC 25922 MIC ([2]; ATCC 25922) | Klebsiella pneumoniae ATCC 13883 MIC ([3]; ATCC 13883) | Structure (SMILES) | Acinetobacter baumannii DSM 30008 MIC [1, 5] | Escherichia coli ATCC 25922 MIC [2, 5] | Klebsiella pneumoniae ATCC 13883 MIC [3, 5] | Hemolysis at 100 μg/mL ([4]; 100 μg/mL, 20% hRBC (v/v), 1 h at 37° C.) | Hemolysis at 100 μg/mL ([4]; red cells of human, 1 h, 100)
1 µg/mL | 0.5 µg/mL | 0.25 µg/mL | CC(C)[C@@H]1NC(=O)[C@@H]2CCCN2C(=O)[C@H]2CCN2C(=O)[C@H]([C@@H](C)O)NC(=O)[C@H](CO)NC(=O)[C@H](C(C)(C)C)NC(=O)[C@H](CCN)NC(=O)[C@H](Cc2c[nH]c3ccccc23)NC(=O)[C@H](CCN)NC(=O)[C@@H](CCN)NC(=O)[C@H](CN)NC(=O)[C@H](CCN)NC(=O)[C@H](Cc2ccc(O)cc2)NC(=O)[C@H](CN)NC1=O [Example 41, cyclo(-Val-Dap-Tyr-Dab-Dap-^DDab-Dab-Trp-Dab-tBuGly-Ser-Thr-^DAzt-Pro-)] (cyclo([Dab][Dap][dDab][Dab]W[Dab][Tle]ST[dAze]PV[Dap]Y)) |  |  |  |  | 1%
4 µg/mL | 1 µg/mL | 1 µg/mL | CC(C)C[C@@H]1NC(=O)[C@H]2CCCN2C(=O)[C@H](CO)NC(=O)[C@H](C)NC(=O)[C@H](C(C)(C)C)NC(=O)[C@H](CCN)NC(=O)[C@H](Cc2c[nH]c3ccccc23)NC(=O)[C@H](CCN)NC(=O)[C@@H](CCN)NC(=O)[C@H](CCCN)NC(=O)[C@H](CCN)NC(=O)[C@H](Cc2ccc(O)cc2)NC(=O)[C@H](CN)NC(=O)[C@H](Cc2ccccc2)NC1=O [Example 42, cyclo(-Phe-Dap-Tyr-Dab-Orn-^DDab-Dab-Trp-Dab-tBuGly-Ala-Ser-^DPro-Leu-)] (cyclo(AS[dP]LF[Dap]Y[Dab][Orn][dDab][Dab]W[Dab][Tle])) |  |  |  |  | 1%
1 µg/mL | 1 µg/mL | 0.25 µg/mL | C[C@@H]1NC(=O)[C@H](C(C)(C)C)NC(=O)[C@H](CCN)NC(=O)[C@H](Cc2c[nH]c3ccccc23)NC(=O)[C@H](CCN)NC(=O)[C@@H](CCN)NC(=O)[C@H](CCCN)NC(=O)[C@H](CCN)NC(=O)[C@H](Cc2ccc(O)cc2)NC(=O)[C@H](CN)NC(=O)[C@H](Cc2ccccc2)NC(=O)[C@H](Cc2ccccc2)NC(=O)[C@H]2CCCN2C(=O)[C@H](CO)NC1=O [Example 43, cyclo(-Phe-Dap-Tyr-Dab-Orn-^DDab-Dab-Trp-Dab-tBuGly-Ala-Ser-^DPro-Phe-)] (cyclo(AS[dP]FF[Dap]Y[Dab][Orn][dDab][Dab]W[Dab][Tle])) |  |  |  |  | 1%
1 µg/mL | 0.5 µg/mL | 0.25 µg/mL | C[C@@H]1NC(=O)[C@H](C(C)(C)C)NC(=O)[C@H](CCN)NC(=O)[C@H](Cc2c[nH]c3ccccc23)NC(=O)[C@H](CCN)NC(=O)[C@@H](CCN)NC(=O)[C@H](CCCN)NC(=O)[C@H](CCN)NC(=O)[C@H](Cc2ccc(O)cc2)NC(=O)[C@H](CN)NC(=O)[C@H](Cc2ccccc2)NC(=O)[C@H](Cc2ccc(O)cc2)NC(=O)[C@H]2CCCN2C(=O)[C@H](CO)NC1=O [Example 44, cyclo(-Phe-Dap-Tyr-Dab-Orn-^DDab-Dab-Trp-Dab-tBuGly-Ala-Ser-^DPro-Tyr-)] (cyclo(AS[dP]YF[Dap]Y[Dab][Orn][dDab][Dab]W[Dab][Tle])) |  |  |  |  | 0%

More lines, now with the values behind:

Structure (SMILES) | Acinetobacter baumannii DSM 30008 MIC ([1]; DSM 30008) | Escherichia coli ATCC 25922 MIC ([2]; ATCC 25922) | Klebsiella pneumoniae ATCC 13883 MIC ([3]; ATCC 13883) | Acinetobacter baumannii DSM 30008 MIC [1, 5] | Escherichia coli ATCC 25922 MIC [2, 5] | Klebsiella pneumoniae ATCC 13883 MIC [3, 5] | Hemolysis at 100 μg/mL ([4]; 100 μg/mL, 20% hRBC (v/v), 1 h at 37° C.) | Hemolysis at 100 μg/mL ([4]; red cells of human, 1 h, 100)
CC(C)[C@@H]1NC(=O)[C@@H]2CCCN2C(=O)[C@H]2CCCN2C(=O)[C@H](CO)NC(=O)[C@H]2CSSC[C@@H](NC1=O)C(=O)N[C@@H](Cc1ccc(O)cc1)C(=O)N[C@@H](CCN)C(=O)N[C@@H](CN)C(=O)N[C@H](CCN)C(=O)N[C@@H](CCN)C(=O)N[C@@H](Cc1c[nH]c3ccccc13)C(=O)N[C@@H](CCN)C(=O)N[C@@H](C(C)(C)C)C(=O)N2 [Example 38, cyclo(-Val-^DCys-Tyr-Dab-Dap-^DDab-Dab-Trp-Dab-tBuGly-^DCys-Ser-^DPro-Pro-)] (cyclo(V[dC]Y[Dab][Dap][dDab][Dab]W[Dab][Tle][dC]S[dP]P); disulfide 2-11) |  |  |  | 2 µg/mL | 4 µg/mL | 2 µg/mL | 2% | 
CC(C)[C@@H]1NC(=O)[C@@H]2CCCN2C(=O)[C@H]2CCCN2C(=O)[C@H](CO)NC(=O)[C@@H]2CSSCC[C@H](NC1=O)C(=O)N[C@@H](Cc1ccc(O)cc1)C(=O)N[C@@H](CCN)C(=O)N[C@@H](CN)C(=O)N[C@H](CCN)C(=O)N[C@@H](CCN)C(=O)N[C@@H](Cc1c[nH]c3ccccc13)C(=O)N[C@@H](CCN)C(=O)N[C@@H](C(C)(C)C)C(=O)N2 [Example 39, cyclo(-Val-Hcy-Tyr-Dab-Dap-^DDab-Dab-Trp-Dab-tBuGly-Cys-Ser-^DPro-Pro-)] (cyclo(V[hCys]Y[Dab][Dap][dDab][Dab]W[Dab][Tle]CS[dP]P); disulfide 2-11) | 2 µg/mL | 1 µg/mL | 1 µg/mL |  |  |  |  | 2%
CC(C)[C@@H]1NC(=O)[C@@H]2CCCN2C(=O)[C@H]2CCCN2C(=O)[C@H](CO)NC(=O)[C@@H]2CNC(=O)NC[C@H](NC1=O)C(=O)N[C@@H](Cc1ccc(O)cc1)C(=O)N[C@@H](CCN)C(=O)N[C@@H](CN)C(=O)N[C@H](CCN)C(=O)N[C@@H](CCN)C(=O)N[C@@H](Cc1c[nH]c3ccccc13)C(=O)N[C@@H](CCN)C(=O)N[C@@H](C(C)(C)C)C(=O)N2 [Example 40, cyclo(-Val-Dap-Tyr-Dab-Dap-^DDab-Dab-Trp-Dab-tBuGly-Dap-Ser-^DPro-Pro-)] (cyclo(V[Dap]Y[Dab][Dap][dDab][Dab]W[Dab][Tle][Dap]S[dP]P); linker 2-11 via CO) | 1 µg/mL | 0.25 µg/mL | 0.25 µg/mL |  |  |  |  | 2%
